These results are taken from patent US20160002273A1, “THIENO[3,2-D]PYRIMIDINE-6-CARBOXAMIDES AND ANALOGUES AS SIRTUIN MODULATORS” (GLAXOSMITHKLINE LLC, priority 2013, published 2016).

Usually IC50 stands for the concentration that inhibits the measured activity by half.

One assay has as its target T1, SIRT2 (Homo sapiens, UniProt Q8IXJ6).
T1 sequence (Q8IXJ6 1-389): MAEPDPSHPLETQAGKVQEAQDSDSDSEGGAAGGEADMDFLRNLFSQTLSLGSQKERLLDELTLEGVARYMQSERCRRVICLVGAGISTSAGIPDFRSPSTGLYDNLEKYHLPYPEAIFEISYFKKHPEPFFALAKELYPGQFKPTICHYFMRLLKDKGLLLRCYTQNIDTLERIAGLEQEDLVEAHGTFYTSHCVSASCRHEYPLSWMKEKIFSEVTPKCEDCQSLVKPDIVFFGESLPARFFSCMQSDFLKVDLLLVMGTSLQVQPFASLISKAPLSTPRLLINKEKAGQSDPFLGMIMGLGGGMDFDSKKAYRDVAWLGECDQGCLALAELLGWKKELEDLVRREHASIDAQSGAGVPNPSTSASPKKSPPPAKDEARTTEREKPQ
As to the kind of experiment: SIRT2 deacetylation of Trp 5-mer peptide, OAADPr mass spec assay. It is filed as biochemical. Details: His-SIRT2(1-389). The conditions noted are these: for pIC50: Trp 5-mer peptide, class symbols, read-out: Trp SIRT2_IC50.

The target of a further assay is T2, SIRT1 (Homo sapiens, UniProt Q96EB6).
T2 sequence (Q96EB6 1-747): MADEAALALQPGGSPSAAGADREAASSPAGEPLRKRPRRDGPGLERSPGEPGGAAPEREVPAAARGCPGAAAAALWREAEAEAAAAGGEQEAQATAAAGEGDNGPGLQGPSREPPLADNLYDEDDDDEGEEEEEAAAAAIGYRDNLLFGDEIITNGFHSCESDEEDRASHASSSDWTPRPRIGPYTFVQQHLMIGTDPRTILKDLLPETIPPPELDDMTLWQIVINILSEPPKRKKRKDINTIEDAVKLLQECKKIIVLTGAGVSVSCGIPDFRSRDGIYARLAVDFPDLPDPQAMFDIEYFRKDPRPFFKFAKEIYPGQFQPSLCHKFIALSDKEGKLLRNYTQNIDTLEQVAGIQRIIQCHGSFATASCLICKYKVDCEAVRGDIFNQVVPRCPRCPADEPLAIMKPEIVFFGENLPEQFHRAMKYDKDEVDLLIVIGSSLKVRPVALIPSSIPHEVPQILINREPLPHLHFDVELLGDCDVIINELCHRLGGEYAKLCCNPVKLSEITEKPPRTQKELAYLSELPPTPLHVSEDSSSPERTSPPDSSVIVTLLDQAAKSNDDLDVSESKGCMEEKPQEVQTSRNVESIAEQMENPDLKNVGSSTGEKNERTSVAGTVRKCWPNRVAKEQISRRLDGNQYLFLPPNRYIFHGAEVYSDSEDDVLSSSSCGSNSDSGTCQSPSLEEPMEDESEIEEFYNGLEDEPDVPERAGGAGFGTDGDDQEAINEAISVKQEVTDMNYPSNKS
The experiment in a line: SIRT1 deacetylation of Trp 5-mer peptide, OAADPr mass spec assay. The following applies: for pIC50: Trp SIRT1_IC50, Trp 5-mer peptide, class symbols.

The next assay deals with T3, SIRT3 (Homo sapiens, UniProt Q9NTG7).
T3 sequence (Q9NTG7 102-399): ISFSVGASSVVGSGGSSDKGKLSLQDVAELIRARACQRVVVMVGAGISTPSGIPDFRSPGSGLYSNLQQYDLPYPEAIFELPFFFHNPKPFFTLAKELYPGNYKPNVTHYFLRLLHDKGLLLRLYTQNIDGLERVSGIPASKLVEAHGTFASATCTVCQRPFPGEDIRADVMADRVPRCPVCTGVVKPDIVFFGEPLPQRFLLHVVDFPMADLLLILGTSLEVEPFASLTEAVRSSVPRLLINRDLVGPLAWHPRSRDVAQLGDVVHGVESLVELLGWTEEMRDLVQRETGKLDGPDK
As to the kind of experiment: SIRT3 deacetylation of Trp 5-mer peptide, OAADPr mass spec assay. The following applies: for pIC50: Trp SIRT3_IC50, Trp 5-mer peptide, class symbols.

Structures are written as SMILES. pIC50: −log10 of the molar value. Like-named read-outs stand apart in the source and are kept apart here.

Procedure for SIRT1: (§1) All assays were performed at room temperature in reaction buffer (50 mM HEPES, pH 7.5, 150 mM NaCl, 1 mM DTT, 0.05% BSA). […] To prepare the assays for analysis, 20 μL of reaction volume was mixed in 80 μL of 50:50 acetonitrile:methanol mixture. […] Peak data was integrated using RapidFire Integrator software (Agilent, Santa Clara, Calif.).
Procedure for SIRT3: as §1

Regarding `CN(C)CCC1CCN(c2ncnc3cc(C(N)=O)sc23)CC1` [Compound 46], the pIC50 on SIRT2 was more than 6.00; against SIRT1 it was 5.00 to 6.00; against SIRT3, more than 6.00.
Turning to `O=C(O)c1cc2ncnc(N3CCC(CN4CCCC4)CC3)c2s1` [Compound 192], the pIC50 at SIRT2, against SIRT1 and against SIRT3 was less than 5.00 throughout.
In the case of `NC(=O)c1cc2ncnc(N3CCC(CCN4CCCC4=O)CC3)c2s1` [Compound 47], the pIC50 at SIRT2, against SIRT1 and on SIRT3 was more than 6.00 each time.
`CS(=O)(=O)NCCC1CCN(c2ncnc3cc(C(N)=O)oc23)CC1` [Compound 99]: the pIC50 at SIRT2, on SIRT1 and against SIRT3 was more than 6.00 throughout.
As for `NC(=O)c1cc2ncnc(N3CCN(CCN4CCCC4)CC3)c2o1` [Compound 92], the pIC50 was more than 6.00 at SIRT2, 5.00 to 6.00 against SIRT1 and more than 6.00 against SIRT3.
For the molecule `NC(=O)c1cc2ncnc(N3CCC4(CCNC4)CC3)c2s1` [Compound 185], the pIC50 at SIRT2 was 5.00 to 6.00; against SIRT1, 5.00 to 6.00; on SIRT3, more than 6.00.
Consider `NCC1CCN(c2ncnc3cc(C(N)=O)sc23)CC1` [Compound 59, 4-(4-(aminomethyl)piperidin-1-yl)thieno[3,2-d]pyrimidine-6-carboxamide], for which the pIC50 at SIRT2, on SIRT1 and at SIRT3 was less than 5.00 throughout.
Regarding `NC(=O)c1cc2ncnc(N3CCC(CCNC(=O)C4CCCC4)CC3)c2o1` [Compound 88], the pIC50 on SIRT2, against SIRT1 and at SIRT3 was more than 6.00 in each case.
`CN(C)CC1CCN(c2ncnc3cc(C(N)=O)sc23)CC1` [Compound 43, 4-(4-((dimethylamino)methyl)piperidin-1-yl)thieno[3,2-d]pyrimidine-6-carboxamide]: the pIC50 on SIRT2 was more than 6.00; at SIRT1, 5.00 to 6.00; at SIRT3, more than 6.00.
For the molecule `COC(=O)c1ccc(C(=O)NCCC2CCN(c3ncnc4cc(C(N)=O)sc34)CC2)s1` [Compound 67], the pIC50 at SIRT2, at SIRT1 and against SIRT3 was more than 6.00 in each case.
`Cc1nc(N2CCN(CCNC(=O)OC(C)(C)C)CC2)c2sc(C(N)=O)cc2n1` [Compound 149]: the pIC50 on SIRT2 was 5.00 to 6.00; against SIRT1, less than 5.00; against SIRT3, 5.00 to 6.00.
As for `CNC(=O)c1cc2ncnc(N3CCC(CCNC(=O)C(C)(C)C)CC3)c2s1` [Compound 41, N-Methyl-4-(4-(2-pivalamidoethyl)piperidin-1-yl)thieno[3,2-d]pyrimidine-6-carboxamide], the IC50 at SIRT2 (Trp 5-mer peptide and NAD at KM, mean of at least three determinations, read-out: IC50 (μM) SIRT2) is 10 µM; on SIRT1 (IC50 (μM) SIRT1, Trp 5-mer peptide and NAD at KM, mean of at least three determinations), more than 50 µM; at SIRT3 (IC50 (μM) SIRT3, Trp 5-mer peptide and NAD at KM, mean of at least three determinations), more than 50 µM. Besides, the pIC50 at SIRT2 is 5.00 to 6.00; against SIRT1 it was less than 5.00; against SIRT3 it was less than 5.00. For the same molecule, the “SIRT1 inhibition, in words” value on SIRT1 (at the concentrations tested) was “no measurable”. Further, the “SIRT3 inhibition, in words” value at SIRT3 (at the concentrations tested) is given as “no measurable”.
Take `NC(=O)c1cc2ncnc(N3CCN(CCNC(=O)C4CCCC4)CC3)c2s1` [Compound 63]: the pIC50 on SIRT2, on SIRT1 and against SIRT3 was more than 6.00 in each case.
`CC(C)(C)OC(=O)N1CCC2(CCN(c3ncnc4cc(C(N)=O)sc34)CC2)C1` [Compound 184]: the pIC50 on SIRT2 was more than 6.00; on SIRT1, 5.00 to 6.00; against SIRT3 it was 5.00 to 6.00.
For the molecule `CC(C)(C)C(=O)N1CCC2(CCN(c3ncnc4cc(C(N)=O)sc34)CC2)C1` [Compound 186], the pIC50 at SIRT2, at SIRT1 and against SIRT3 was more than 6.00 in each case.
Regarding `Cc1nc(N2CCN(CCN3CCCC3)CC2)c2sc(C(N)=O)cc2n1` [Compound 150], the results for the pIC50 on SIRT2, against SIRT1 and at SIRT3 were 5.00 to 6.00, 5.00 to 6.00 and more than 6.00, respectively.
Regarding `CC(C)(C)OC(=O)NCCN1CCN(c2ncnc3cc(C(N)=O)sc23)CC1` [Compound 15b, tert-butyl (2-(4-(6-carbamoylthieno[3,2-d]pyrimidin-4-yl)piperazin-1-yl)ethyl)carbamate], the pIC50 at SIRT2, at SIRT1 and on SIRT3 was more than 6.00 each time.
With `NC(=O)c1cc2ncnc(N3CCC(CN4CCCC4)CC3)c2o1` [Compound 90], the pIC50 at SIRT2 is 5.00 to 6.00; at SIRT1, 5.00 to 6.00; against SIRT3, more than 6.00.
In the case of `COCCC1CCN(c2nc(C)nc3cc(C(N)=O)sc23)CC1` [Compound 148], the pIC50 on SIRT2, on SIRT1 and against SIRT3 was 5.00 to 6.00 in each case.
In the case of `COCCN1CCN(c2ncnc3cc(C(N)=O)sc23)CC1` [Compound 45], the pIC50 at SIRT2 was more than 6.00; on SIRT1, 5.00 to 6.00; on SIRT3 it was 5.00 to 6.00.
For the molecule `NC(=O)c1cc2ncnc(N3CCC(CN4CCCC(C(F)(F)F)C4)CC3)c2s1` (centres unmarked) [Compound 131, 4-(4-((3-(trifluoromethyl)piperidin-1-yl)methyl)piperidin-1-yl)thieno[3,2-d]pyrimidine-6-carboxamide], the pIC50 at SIRT2, on SIRT1 and at SIRT3 was more than 6.00 each time.
`NC(=O)c1cc2ncnc(N3CCC(CCO)CC3)c2o1` [Compound 93]: the pIC50 on SIRT2 is more than 6.00; against SIRT1, 5.00 to 6.00; against SIRT3, more than 6.00.
With `NCCC1CCN(c2ccnc3cc(C(N)=O)sc23)CC1` [Compound 104, 7-(4-(2-aminoethyl)piperidin-1-yl)thieno[3,2-b]pyridine-2-carboxamide], the pIC50 was more than 6.00 on SIRT2, 5.00 to 6.00 on SIRT1 and more than 6.00 at SIRT3.
Turning to `NCCC1CCN(c2nccc3cc(C(N)=O)sc23)CC1` [Compound 175, 7-(4-(2-aminoethyl)piperidin-1-yl)thieno[2,3-c]pyridine-2-carboxamide], the pIC50 at SIRT2, on SIRT1 and on SIRT3 was less than 5.00 each time.
`NC(=O)c1cc2ncnc(N3CCC(CCNC(=O)C4CCCC4)CC3)c2s1` [Compound 53]: the pIC50 at SIRT2, on SIRT1 and against SIRT3 was more than 6.00 each time.
As to `NCCC1CCN(c2ncnc3ccsc23)CC1` [Compound 188, 2-(1-(thieno[3,2-d]pyrimidin-4-yl)piperidin-4-yl)ethanamine 2,2,2-trifluoroacetate], the pIC50 on SIRT2 is 5.00 to 6.00; at SIRT1, less than 5.00; against SIRT3 it was less than 5.00.
As to `CC(C)(C)OC(=O)NCCCC1CCN(c2ncnc3cc(C(N)=O)sc23)CC1` [Compound 76, tert-butyl (3-(1-(6-carbamoylthieno[3,2-d]pyrimidin-4-yl)piperidin-4-yl)propyl)carbamate], the pIC50 at SIRT2, on SIRT1 and on SIRT3 was more than 6.00 throughout.
Take `Cc1c(C(N)=O)sc2c(N3CCC(CCN)CC3)ncnc12` [Compound 117, 4-(4-(2-aminoethyl)piperidin-1-yl)-7-methylthieno[3,2-d]pyrimidine-6-carboxamide]: the pIC50 was 5.00 to 6.00 at SIRT2, less than 5.00 against SIRT1 and 5.00 to 6.00 on SIRT3.
For the molecule `NC(=O)c1cc2ccnc(N3CCC(CN4CCCC4)CC3)c2s1` [Compound 170], the pIC50 at SIRT2 is less than 5.00; against SIRT1, less than 5.00; at SIRT3, 5.00 to 6.00.
